Results on 20 compounds are retold here after patent US20240239799A1, “(S)-1-(5-((PYRIDIN-3-YL)THIO)PYRAZIN-2-YL)-4'H,6'H-SPIRO[PIPERIDINE-4,5'-PYRROLO [1,2-B]PYRAZOL]-4'-AMINE DERIVATIVES AND SIMILAR COMPOUNDS AS SHP2 INHIBITORS FOR THE TREATMENT OF E.G. CANCER” (C.N.C.C.S. S.C.A.R.L. COLLEZIONE NAZIONALE DEI COMPOSTI …, priority 2021, published 2024).

Each structure is given as a SMILES string. A value given as a limit tells only on which side of the number the result lay.

For experiment [1], the target named is T1, SHP-2 enzyme (Met1-Leu525) (Homo sapiens, UniProt Q06124).
T1 construct: synthetized by Origene, Met1-Leu525, cat #TP750155; purchased Origene TP750155
T1 sequence (Q06124 1-525): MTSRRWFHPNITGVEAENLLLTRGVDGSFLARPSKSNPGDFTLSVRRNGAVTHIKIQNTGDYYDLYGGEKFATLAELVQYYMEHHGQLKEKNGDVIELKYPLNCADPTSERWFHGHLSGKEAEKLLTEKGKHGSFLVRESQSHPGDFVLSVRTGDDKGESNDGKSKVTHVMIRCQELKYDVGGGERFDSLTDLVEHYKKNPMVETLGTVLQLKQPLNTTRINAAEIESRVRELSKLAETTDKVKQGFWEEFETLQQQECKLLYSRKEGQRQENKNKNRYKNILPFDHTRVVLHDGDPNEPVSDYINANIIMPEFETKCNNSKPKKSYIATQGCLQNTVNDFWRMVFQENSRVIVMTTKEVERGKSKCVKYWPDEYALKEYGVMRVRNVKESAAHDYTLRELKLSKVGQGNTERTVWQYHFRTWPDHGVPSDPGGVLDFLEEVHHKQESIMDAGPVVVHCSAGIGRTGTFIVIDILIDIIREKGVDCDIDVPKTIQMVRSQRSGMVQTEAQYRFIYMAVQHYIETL
In words: SHP2 inhibition enzymatic assay (DiFMUP substrate, IRS1 peptide activation). The class given is biochemical. The conditions noted are these: 0.5 nM SHP-2, 500 nM IRS1 peptide, 75 μM DiFMUP; read-out: SHP2wt - IC50. As to the method: Assay volume of 20 μL/well was assembled in 384 well black polystyrene low-binding microplates (Greiner), using the following buffer: 60 mM HEPES pH 7.2, 75 mM NaCl, 75 mM KCl, 1 mM EDTA pH 8, 0.05% tween-20, 5 mM DTT. The SHP-2 enzyme (synthetized by Origene, Met1-Leu525, cat #TP750155) was used at a final concentration of 0.5 nM.
Briefly, DMSO serially diluted testing compounds were transferred to the bottom of the assay plate. SHP2 was then added together with the IRS1 peptide 30 min post incubation, the DiFMUP substrate was added to the reaction and incubated 30 min at rt. […] The fluorescence was detected by a microplate reader (Envision, PerkinElmer) according to the DiFMUP excitation and emission wavelength. The lower the fluorescence the higher the SHP2 inhibition.
The percentage inhibition is fitted against the compound dilutions with a four-parameter logistic regression. The inflection point (i.e. the concentration at which half-maximal inhibition is achieved) is the IC50.

The subject of experiment [2] is phospho-ERK1/2 (Thr202/Tyr204) in KYSE-520 cells. Briefly: Phospho-ERK cellular assay (TR-FRET). The conditions noted are these: Homo sapiens, KYSE-520, 2 h, KYSE-520 cells, 2 h at 37° C.; read-out: pERK IC50. The class given is cell-based. As to the method: ERK phosphorylation was detected using the “Advanced phospho-ERK1/2 (Thr202/Tyr204)” TR-FRET kit (Cisbio, Cat #64AERPEG/H), following the manufacturer reagents and instructions.
Briefly, 20.000/well KYSE-520 cells (DSMZ ACC 371) were plated in 6 μL RPMI-1640 (Invitrogen) growth medium, into 384 white low-volume high base TC microplates (Greiner). After an overnight incubation, cells were treated with DMSO serial diluted compounds and incubated for 2 h at 37° C. After incubation, 2 μL/well of 4X Lysis Buffer (Cisbio 64KL1FDF), were added and incubated with cells for 30 min on gentle shaking. Finally, lysates were added with 2 μL/well of Eu cryptate (donor) and D2 (acceptor) conjugated antibodies (as provided by the Cisbio kit #64AERPEG/H) diluted 1:100 in Detection Buffer (as provided by the Cisbio kit #64AERPEG/H). Plates were then sealed and incubated at rt in the dark. After an overnight incubation, the TR-FRET signal was detected on a suitable reader (Envision, PerkinElmer). The lower the TR-FRET signal the higher the higher the SHP2 inhibition in cells.
The activity of each compound dilution was calculated as percentage between vehicle DMSO treated cells and no cells, 0% inhibition and 100% inhibition respectively. The percentage activity is fitted against the compound dilutions with a four-parameter logistic regression. The inflection point (i.e. the concentration at which half-maximal inhibition is achieved) is the IC50.

Consider `Cc1nc(N2CCC3(CC2)Cn2nccc2[C@H]3N)cc(=O)n1-c1cccc(Cl)c1Cl` [Example 77, (S)-6-(4′-amino-4′H,6′H-spiro[piperidine-4,5′-pyrrolo[1,2-b]pyrazol]-1-yl)-3-(2,3-dichlorophenyl)-2-methylpyrimidin-4(3H)-one], for which the IC50 (as a rule, the concentration at which inhibition is half-maximal) in experiment [1] is ≤ 50 nM; in experiment [2] it was 100 to 500 nM. The like results for `Cn1cc2c(Cl)c(-c3n[nH]c4nc(N5CCC6(CC5)Cn5nccc5[C@H]6N)cnc34)ccc2n1` [Example 70, (S)-1-(3-(4-chloro-2-methyl-2H-indazol-5-yl)-1H-pyrazolo[3,4-b]pyrazin-6-yl)-4′H,6′H-spiro[piperidine-4,5′-pyrrolo[1,2-b]pyrazol]-4′-amine] were, in that order, ≤ 50 nM and < 100 nM.

For the compound `N[C@@H]1c2ccnn2CC12CCN(c1ncc(Sc3ccnc4c3OC[C@@H]3CCCN43)c3nccn13)CC2` [Example 17, (S)-1-(8-(((S)-6a,7,8,9-tetrahydro-6H-pyrido[3,2-b]pyrrolo[1,2-d][1,4]oxazin-4-yl)thio)imidazo[1,2-c]pyrimidin-5-yl)-4′H,6′H-spiro[piperidine-4,5′-pyrrolo[1,2-b]pyrazol]-4′-amine], the IC50 in experiment [1] was ≤ 50 nM; in experiment [2], < 100 nM. `Nc1ccc(Sc2cnc(N3CCC4(CC3)Cn3nccc3[C@H]4N)cn2)c(Cl)n1` [Example 55, (S)-1-(5-((6-amino-2-chloropyridin-3-yl)thio)pyrazin-2-yl)-4′H,6′H-spiro[piperidine-4,5′-pyrrolo[1,2-b]pyrazol]-4′-amine]: the IC50 was ≤ 50 nM in experiment [1] and < 100 nM in experiment [2]. In the same order, the values of `N[C@@H]1c2ccnn2CC12CCN(c1ccc(Sc3cccc(Cl)c3Cl)nc1)CC2` [Example 84, (S)-1-(6-((2,3-dichlorophenyl)thio)pyridin-3-yl)-4′H,6′H-spiro[piperidine-4,5′-pyrrolo[1,2-b]pyrazol]-4′-amine] are ≤ 50 nM and < 100 nM. In the same order, the values of `N[C@@H]1c2ccnn2CC12CCN(c1nccn3c(-c4cccc(Cl)c4Cl)ncc13)CC2` [Example 85, (S)-1-(3-(2,3-dichlorophenyl)imidazo[1,5-a]pyrazin-8-yl)-4′H,6′H-spiro[piperidine-4,5′-pyrrolo[1,2-b]pyrazol]-4′-amine] are ≤ 50 nM and < 100 nM. In the case of `Nc1nccc(Sc2cnc(N3CCC4(CC3)Cn3nncc3[C@H]4N)n3ccnc23)c1Cl` [Example 39, (S)-1-(8-((2-amino-3-chloropyridin-4-yl)thio)imidazo[1,2-c]pyrimidin-5-yl)-4′H,6′H-spiro[piperidine-4,5′-pyrrolo[1,2-c][1,2,3]triazol]-4′-amine], the IC50 in experiment [1] was ≤ 50 nM; in experiment [2], 100 to 500 nM. The like results for `Nc1nc(N2CCC3(CC2)Cn2nccc2[C@H]3N)cnc1Sc1ccnc(-n2cccn2)c1Cl` [Example 60, (S)-1-(6-amino-5-((3-chloro-2-(1H-pyrazol-1-yl)pyridin-4-yl)thio)pyrazin-2-yl)-4′H,6′H-spiro[piperidine-4,5′-pyrrolo[1,2-b]pyrazol]-4′-amine] were, in that order, ≤ 50 nM and < 100 nM. In the same order, the values of `N[C@@H]1c2ccnn2CC12CCN(c1cnc(Sc3ccn4c(Cl)cnc4c3Cl)cn1)CC2` [Example 48, (S)-1-(5-((3,8-dichloroimidazo[1,2-a]pyridin-7-yl)thio)pyrazin-2-yl)-4′H,6′H-spiro[piperidine-4,5′-pyrrolo[1,2-b]pyrazol]-4′-amine] are ≤ 50 nM and < 100 nM. The like results for `N[C@@H]1c2c(F)cnn2CC12CCN(c1cnc(Sc3ccn4c(Cl)cnc4c3Cl)cn1)CC2` [Example 50, (S)-1-(5-((3,8-dichloroimidazo[1,2-a]pyridin-7-yl)thio)pyrazin-2-yl)-3′-fluoro-4′H,6′H-spiro[piperidine-4,5′-pyrrolo[1,2-b]pyrazol]-4′-amine] were, in that order, ≤ 50 nM and < 100 nM.

As to `COc1cc2n(n1)CC1(CCN(c3cnc(Sc4ccnc(N)c4Cl)cn3)CC1)[C@@H]2N` [Example 12, (S)-1-(5-((2-amino-3-chloropyridin-4-yl)thio)pyrazin-2-yl)-2′-methoxy-4′H,6′H-spiro[piperidine-4,5′-pyrrolo[1,2-b]pyrazol]-4′-amine], the values for the IC50 in experiment [1] and in experiment [2] were ≤ 50 nM and 100 to 500 nM, respectively. The like results for `Cc1cnn2c1[C@@H](N)C1(CCN(c3cnc(Sc4ccnc(N)c4Cl)cn3)CC1)C2` [Example 10, (S)-1-(5-((2-amino-3-chloropyridin-4-yl)thio)pyrazin-2-yl)-3′-methyl-4′H,6′H-spiro[piperidine-4,5′-pyrrolo[1,2-b]pyrazol]-4′-amine] were, in that order, ≤ 50 nM and < 100 nM.

As to `Nc1nccc(Sc2cnc(N3CCC4(CC3)Cn3nc(CO)c(CO)c3[C@H]4N)c3cncn23)c1Cl` [Example 28, (S)-(4′-amino-1-(5-((2-amino-3-chloropyridin-4-yl)thio)imidazo[1,5-a]pyrazin-8-yl)-4′H,6′H-spiro[piperidine-4,5′-pyrrolo[1,2-b]pyrazole]-2′,3′-diyl)dimethanol], the values for the IC50 in experiment [1] and in experiment [2] were 50 to 300 nM and < 100 nM, respectively.

In the case of `Nc1nc(N2CCC3(CC2)Cn2nccc2[C@H]3N)cnc1Sc1ccn2ccnc2c1Cl` [Example 44, (S)-1-(6-amino-5-((8-chloroimidazo[1,2-a]pyridin-7-yl)thio)pyrazin-2-yl)-4′H,6′H-spiro[piperidine-4,5′-pyrrolo[1,2-b]pyrazol]-4′-amine], the IC50 in experiment [2] was < 100 nM. For the compound `Cc1cn2ccc(Sc3cnc(N4CCC5(CC4)Cn4nccc4[C@H]5N)cn3)c(Cl)c2n1` [Example 43, (S)-1-(5-((8-chloro-2-methylimidazo[1,2-a]pyridin-7-yl)thio)pyrazin-2-yl)-4′H,6′H-spiro[piperidine-4,5′-pyrrolo[1,2-b]pyrazol]-4′-amine], the IC50 in experiment [2] is < 100 nM. On to `Cc1nccc(Sc2cnc(N3CCC4(CC3)Cn3cccc3[C@H]4N)cn2)c1F` [Example 87, (S)-1-(5-((3-fluoro-2-methylpyridin-4-yl)thio)pyrazin-2-yl)-1′H,3′H-spiro[piperidine-4,2′-pyrrolizin]-1′-amine], for which, in experiment [1], the IC50 was ≤ 50 nM. Consider `Cc1nccc(-c2ncc3c(N4CCC5(CC4)Cn4nccc4[C@H]5N)nccn23)c1F` [Example 89, (S)-1-(3-(3-fluoro-2-methylpyridin-4-yl)imidazo[1,5-a]pyrazin-8-yl)-4′H,6′H-spiro[piperidine-4,5′-pyrrolo[1,2-b]pyrazol]-4′-amine], for which, in experiment [1], the IC50 lay in the range of 50 to 300 nM. As for `Cc1c(N2CCC3(CC2)Cn2nccc2[C@H]3N)nc(C)n(-c2cccc(Cl)c2Cl)c1=O` [Example 88, (S)-6-(4′-amino-4′H,6′H-spiro[piperidine-4,5′-pyrrolo[1,2-b]pyrazol]-1-yl)-3-(2,3-dichlorophenyl)-2,5-dimethylpyrimidin-4(3H)-one], the IC50 in experiment [1] is ≤ 50 nM. As for `N[C@@H]1c2ccnn2CC12CCN(c1cnc(Sc3ccnc(-n4cccn4)c3Cl)cn1)CC2` [Example 33, (S)-1-(5-((3-chloro-2-(1H-pyrazol-1-yl)pyridin-4-yl)thio)pyrazin-2-yl)-4′H,6′H-spiro[piperidine-4,5′-pyrrolo[1,2-b]pyrazol]-4′-amine], in experiment [2], the IC50 was < 100 nM.

`N[C@@H]1c2ccnn2CC12CCN(c1ccc(Oc3cccc(Cl)c3Cl)nc1)CC2` [Example 90, (S)-1-(6-(2,3-dichlorophenoxy)pyridin-3-yl)-4′H,6′H-spiro[piperidine-4,5′-pyrrolo[1,2-b]pyrazol]-4′-amine]: in experiment [1], the IC50 was in the range of 50 to 300 nM.
